# Reference: patent US20180000085A1, “USE OF PICOLINAMIDE COMPOUNDS WITH FUNGICIDAL ACTIVITY” (DOW AGROSCIENCES LLC, priority 2014, published 2018)
# Tests used:
# Zymoseptoria tritici = experiment: Leaf blotch of wheat (SEPTTR) disease control on wheat seedlings; type: in vivo; parameters: key to SEPTTR 1DP, HV activity at 100 ppm (% control rating) / SEPTTR 3DC, HV activity at 100 ppm (% control rating) / SEPTTR disease control, 1DP / SEPTTR disease control, 3DC / SEPTTR 1DP disease control rating, HV activity / SEPTTR 3DC disease control rating, HV activity / SEPTTR 3DC, LV activity at 125.1 g/H (% Control rating) / SEPTTR 1DP, LV activity at 125.1 g/H (% Control rating) / SEPTTR 1DP disease control rating, LV activity at 125.1 g/H / SEPTTR 3DC disease control rating, LV activity at 125.1 g/H / SEPTTR 3DC disease control rating, HV activity at 100 ppm / SEPTTR 1DP disease control rating, HV activity at 100 ppm / HV activity at 100 ppm SEPTTR 3DC (disease control rating) / HV activity at 100 ppm SEPTTR 1DP (disease control rating) / LV activity at 125.1 g/H SEPTTR 1DP (disease control rating) / LV activity at 125.1 g/H SEPTTR 3DC (disease control rating): A: > 80; B: ≤ 80; C: Not Tested; D: No Activity Observed in the Reported Assay; conditions: for SEPTTR 1DP disease control rating, HV activity / SEPTTR 3DC disease control rating, HV activity: HV application at 100 ppm; for SEPTTR 1DP disease control rating, HV activity / SEPTTR 1DP, LV activity at 125.1 g/H (% Control rating) / LV activity at 125.1 g/H SEPTTR 1DP (disease control rating): 1 Day Protectant; for SEPTTR 1DP disease control rating, HV activity / SEPTTR 3DC disease control rating, HV activity / LV activity at 125.1 g/H SEPTTR 1DP (disease control rating) / LV activity at 125.1 g/H SEPTTR 3DC (disease control rating): wheat leaf blotch; for SEPTTR 3DC disease control rating, HV activity / SEPTTR 3DC, LV activity at 125.1 g/H (% Control rating) / LV activity at 125.1 g/H SEPTTR 3DC (disease control rating): 3 Day Curative; for SEPTTR 1DP, LV activity at 125.1 g/H (% Control rating) / SEPTTR 3DC, LV activity at 125.1 g/H (% Control rating) / LV activity at 125.1 g/H SEPTTR 1DP (disease control rating) / LV activity at 125.1 g/H SEPTTR 3DC (disease control rating) / SEPTTR 1DP disease control rating, LV activity at 125.1 g/H / SEPTTR 3DC disease control rating, LV activity at 125.1 g/H: low volume application
# Puccinia triticina = experiment: Wheat brown rust (PUCCRT) disease control on wheat seedlings; type: in vivo; parameters: key to PUCCRT 3DC, HV activity at 100 ppm (% control rating) / PUCCRT disease control, 3DC / PUCCRT 1DP disease control rating, HV activity / PUCCRT 3DC disease control rating, HV activity / PUCCRT 3DC, LV activity at 125.1 g/H (% Control rating) / PUCCRT 1DP, LV activity at 125.1 g/H (% Control rating) / PUCCRT 3DC disease control rating, LV activity at 125.1 g/H / PUCCRT 1DP disease control rating, LV activity at 125.1 g/H / PUCCRT 3DC disease control rating, HV activity at 100 ppm / PUCCRT 1DP disease control rating, HV activity at 100 ppm / HV activity at 100 ppm PUCCRT 3DC (disease control rating) / LV activity at 125.1 g/H PUCCRT 1DP (disease control rating) / LV activity at 125.1 g/H PUCCRT 3DC (disease control rating): A: > 80; B: ≤ 80; C: Not Tested; D: No Activity Observed in the Reported Assay; conditions: for PUCCRT 1DP disease control rating, HV activity / PUCCRT 3DC disease control rating, HV activity: HV application at 100 ppm; for PUCCRT 1DP disease control rating, HV activity / PUCCRT 1DP, LV activity at 125.1 g/H (% Control rating) / LV activity at 125.1 g/H PUCCRT 1DP (disease control rating): 1 Day Protectant; for PUCCRT 1DP disease control rating, HV activity / PUCCRT 3DC disease control rating, HV activity / LV activity at 125.1 g/H PUCCRT 1DP (disease control rating) / LV activity at 125.1 g/H PUCCRT 3DC (disease control rating): wheat brown rust; for PUCCRT 3DC disease control rating, HV activity / PUCCRT 3DC, LV activity at 125.1 g/H (% Control rating) / LV activity at 125.1 g/H PUCCRT 3DC (disease control rating): 3 Day Curative; for PUCCRT 1DP, LV activity at 125.1 g/H (% Control rating) / PUCCRT 3DC, LV activity at 125.1 g/H (% Control rating) / LV activity at 125.1 g/H PUCCRT 1DP (disease control rating) / LV activity at 125.1 g/H PUCCRT 3DC (disease control rating) / PUCCRT 1DP disease control rating, LV activity at 125.1 g/H / PUCCRT 3DC disease control rating, LV activity at 125.1 g/H: low volume application
# [1] = high volume application, 100 ppm, 1 day protectant
# [2] = high volume application, 100 ppm, 3 day curative
smiles,measurement,setting,value
"CCCO[C@@H]([C@H](C)OC(=O)[C@H](C)NC(=O)c1nccc(OC)c1O)[C@H](CC)Oc1ccccc1 [Cmpd 326, (S)-(2S,3S,4S)-4-phenoxy-3-propoxyhexan-2-yl-2-(3-hydroxy-4-methoxypicolinamido)propanoate]","SEPTTR 1DP disease control rating, HV activity",Zymoseptoria tritici,D
same,"SEPTTR 3DC disease control rating, HV activity",Zymoseptoria tritici,D
same,"PUCCRT 1DP disease control rating, HV activity",Puccinia triticina,A (> 80)
same,"PUCCRT 3DC disease control rating, HV activity",Puccinia triticina,A (> 80)
COc1ccnc(C(=O)N[C@H](C(=O)O[C@@H](C)[C@H](Oc2cccc3ccccc23)C(C)C)C(C)C)c1OCOC(C)=O [Cmpd 624],"SEPTTR 1DP, LV activity at 125.1 g/H (% Control rating)",Zymoseptoria tritici,B (≤ 80)
same,"SEPTTR 3DC, LV activity at 125.1 g/H (% Control rating)",Zymoseptoria tritici,D
same,"PUCCRT 1DP, LV activity at 125.1 g/H (% Control rating)",Puccinia triticina,A (> 80)
same,"PUCCRT 3DC, LV activity at 125.1 g/H (% Control rating)",Puccinia triticina,A (> 80)
COc1ccnc(C(=O)N[C@@H](C)C(=O)O[C@@H](C)COCc2ccccc2)c1O [Cmpd 331],"SEPTTR 1DP disease control rating, HV activity",Zymoseptoria tritici,B (≤ 80)
same,"SEPTTR 3DC disease control rating, HV activity",Zymoseptoria tritici,D
same,"PUCCRT 1DP disease control rating, HV activity",Puccinia triticina,B (≤ 80)
same,"PUCCRT 3DC disease control rating, HV activity",Puccinia triticina,A (> 80)
C=CC[C@@H](Oc1cc(F)cc(Cl)c1)[C@H](C)OC(=O)[C@H](C)NC(=O)c1nccc(OC)c1OCOC(C)=O [Cmpd 1078],LV activity at 125.1 g/H SEPTTR 1DP (disease control rating),Zymoseptoria tritici,B (≤ 80)
same,LV activity at 125.1 g/H SEPTTR 3DC (disease control rating),Zymoseptoria tritici,B (≤ 80)
same,LV activity at 125.1 g/H PUCCRT 1DP (disease control rating),Puccinia triticina,A (> 80)
same,LV activity at 125.1 g/H PUCCRT 3DC (disease control rating),Puccinia triticina,A (> 80)
CCC(C)C(Oc1ccccc1)C(C)OC(=O)C(C)NC(=O)c1nccc(OC)c1O (stereo not drawn) [Cmpd 440],"SEPTTR 1DP disease control rating, HV activity",Zymoseptoria tritici,A (> 80)
same,"SEPTTR 3DC disease control rating, HV activity",Zymoseptoria tritici,A (> 80)
same,"PUCCRT 1DP disease control rating, HV activity",Puccinia triticina,A (> 80)
same,"PUCCRT 3DC disease control rating, HV activity",Puccinia triticina,A (> 80)
CCC[C@@H](Oc1ccc(C)cc1Cl)[C@H](C)OC(=O)[C@H](C)NC(=O)c1nccc(OC)c1O [Cmpd 999],"SEPTTR 1DP disease control rating, HV activity at 100 ppm",Zymoseptoria tritici; [1],B (≤ 80)
same,"SEPTTR 3DC disease control rating, HV activity at 100 ppm",Zymoseptoria tritici; [2],B (≤ 80)
same,"PUCCRT 1DP disease control rating, HV activity at 100 ppm",Puccinia triticina; [1],A (> 80)
same,"PUCCRT 3DC disease control rating, HV activity at 100 ppm",Puccinia triticina; [2],A (> 80)
CCC[C@@H](Oc1cccc(Cl)c1)[C@H](C)OC(=O)[C@H](C)NC(=O)c1nccc(OC)c1OC(C)=O [Cmpd 1056],LV activity at 125.1 g/H SEPTTR 1DP (disease control rating),Zymoseptoria tritici,A (> 80)
same,LV activity at 125.1 g/H SEPTTR 3DC (disease control rating),Zymoseptoria tritici,A (> 80)
same,LV activity at 125.1 g/H PUCCRT 1DP (disease control rating),Puccinia triticina,A (> 80)
same,LV activity at 125.1 g/H PUCCRT 3DC (disease control rating),Puccinia triticina,A (> 80)
COc1ccnc(C(=O)NC(C)C(=O)OC(C)COC(C)(C)C)c1OCOC(C)=O (stereo not drawn) [Cmpd 535],"SEPTTR 1DP, LV activity at 125.1 g/H (% Control rating)",Zymoseptoria tritici,D
same,"SEPTTR 3DC, LV activity at 125.1 g/H (% Control rating)",Zymoseptoria tritici,B (≤ 80)
same,"PUCCRT 1DP, LV activity at 125.1 g/H (% Control rating)",Puccinia triticina,D
same,"PUCCRT 3DC, LV activity at 125.1 g/H (% Control rating)",Puccinia triticina,B (≤ 80)
CCCOC[C@@H](Oc1ccccc1)[C@H](C)OC(=O)[C@H](CC)NC(=O)c1nccc(OC)c1O [Cmpd 314],"SEPTTR 1DP disease control rating, HV activity",Zymoseptoria tritici,B (≤ 80)
same,"SEPTTR 3DC disease control rating, HV activity",Zymoseptoria tritici,D
same,"PUCCRT 1DP disease control rating, HV activity",Puccinia triticina,A (> 80)
same,"PUCCRT 3DC disease control rating, HV activity",Puccinia triticina,B (≤ 80)
CCCO[C@@H](C(C)C)[C@H](C)OC(=O)[C@H](C)NC(=O)c1nccc(OC)c1OC(C)=O [Cmpd 855],"SEPTTR 1DP disease control rating, LV activity at 125.1 g/H",Zymoseptoria tritici; 1 day protectant,D
same,"SEPTTR 3DC disease control rating, LV activity at 125.1 g/H",Zymoseptoria tritici; 3 day curative,D
same,"PUCCRT 1DP disease control rating, LV activity at 125.1 g/H",Puccinia triticina; 1 day protectant,B (≤ 80)
same,"PUCCRT 3DC disease control rating, LV activity at 125.1 g/H",Puccinia triticina; 3 day curative,B (≤ 80)
CC[C@H](C)[C@H](NC(=O)c1nccc(OC)c1OC(C)=O)C(=O)O[C@@H](C)[C@H](Oc1cc(F)ccc1F)C(C)C [Cmpd 630],"SEPTTR 1DP, LV activity at 125.1 g/H (% Control rating)",Zymoseptoria tritici,D
same,"SEPTTR 3DC, LV activity at 125.1 g/H (% Control rating)",Zymoseptoria tritici,D
same,"PUCCRT 1DP, LV activity at 125.1 g/H (% Control rating)",Puccinia triticina,A (> 80)
same,"PUCCRT 3DC, LV activity at 125.1 g/H (% Control rating)",Puccinia triticina,A (> 80)
CC[C@H](OC(=O)[C@H](C)NC(=O)c1nccc(OC)c1OCOC(C)=O)[C@H](Oc1ccccc1)C(C)C [Cmpd 877],"SEPTTR 1DP disease control rating, LV activity at 125.1 g/H",Zymoseptoria tritici; 1 day protectant,B (≤ 80)
same,"SEPTTR 3DC disease control rating, LV activity at 125.1 g/H",Zymoseptoria tritici; 3 day curative,B (≤ 80)
same,"PUCCRT 1DP disease control rating, LV activity at 125.1 g/H",Puccinia triticina; 1 day protectant,A (> 80)
same,"PUCCRT 3DC disease control rating, LV activity at 125.1 g/H",Puccinia triticina; 3 day curative,A (> 80)
